Converted amounts (≈) assume the structure as drawn.
System: RSV A2
Test: RSV antiviral cytopathic effect (CPE) assay, MTT readout
Format: cell-based
Settings: human respiratory syncytial virus, HEp-2, 120 h; RSV A2 in HEp2 cells, CPE assay, MTT, approx. 5 days; read-out: Activity Range (RSV A2 antiviral EC50), compounds of Table 3
Description: Method Q: RSV Antiviral Assay Protocol
Compounds of the invention were tested for their antiviral activity against respiratory syncytial virus. Cytopathic effect (CPE) assays were performed essentially as described in the literature (see for example Watanabe et al, 1. Virological Methods, 1994, 48, 257). Serial dilutions of the test compounds were made in assay medium. HEp2 cells (1.0×10^4 cells/well) were infected with RSV at a low multiplicity of infection (e.g. RSV A2 at an moi of 0.01) and 100 μL added to cultures assessing antiviral activity and cells without virus added to those assessing compound cytotoxicity. Assays were incubated for approximately 5 days at 37° C. in a 5% CO2 atmosphere. The extent of CPE was determined via metabolism of the vital dye 3-(4,5-dimethylthiaxol-2-yl)-2,5-diphenyltetrazolium bromide (MTT). A 3 mg/ml stock of MTT was made in assay medium and 100 μL added to each well, taking the final MTT concentration to […]. After 2 hours incubation at 37° C., the media-MTT solution was removed and 200 μL of isopropanol was added to dissolve the vital dye crystals. Plates were shaken and the absorbance read at 540 nm. The compound concentrations that inhibited CPE by 50% (EC50) and developed cytotoxicity (CC50) were calculated using an Excel curve fitting program.

Row | EC50 [µg/mL] | SMILES
1 | < 0.1 | Cc1cc(C(=O)N2CCN3C(=O)c4ccncc4C32c2ccc(Cl)cc2)c(C(F)(F)F)o1 (stereo not shown) [Compound 385]
2 | < 0.1 | O=C(c1cccnc1)N1CCN2C(=O)c3ccncc3C12c1ccc(Cl)cc1 (stereo not shown) [Compound 363]
3 | < 0.1 | Cc1nonc1C(=O)N1CCN2C(=O)c3ccncc3C21c1ccc(Cl)cc1 (stereo not shown) [Compound 484]
4 | < 0.1 | O=C(c1cscn1)N1CCN2C(=O)c3ccncc3C12c1ccc(Cl)cc1 (stereo not shown) [Compound 483]
5 | 0.25 to 1 (≈ 0.527 to 2.11 µM) | O=C(c1ccc(Br)s1)N1CCN2C(=O)c3ccncc3C12c1ccc(Cl)cc1 (stereo not shown) [Compound 437]
6 | 0.1 to 0.25 (≈ 0.235 to 0.587 µM) | COc1cscc1C(=O)N1CCN2C(=O)c3ccncc3C12c1ccc(Cl)cc1 (stereo not shown) [Compound 441]
7 | 0.1 to 0.25 (≈ 0.211 to 0.529 µM) | O=C(c1cncc(-c2cccs2)c1)N1CCN2C(=O)c3ccncc3C12c1ccc(Cl)cc1 (stereo not shown) [Compound 409]
8 | < 0.1 | O=C(c1cccc(Cl)n1)N1CCN2C(=O)c3ccncc3C12c1ccc(Cl)cc1 (stereo not shown) [Compound 453]
9 | 0.25 to 1 (≈ 0.64 to 2.56 µM) | O=C(c1ccccn1)N1CCN2C(=O)c3ccncc3C12c1ccc(Cl)cc1 (stereo not shown) [Compound 455]
10 | 0.25 to 1 (≈ 0.495 to 1.98 µM) | COc1c(C(=O)N2CCN3C(=O)c4ccncc4C32c2ccc(Cl)cc2)csc1Br (stereo not shown) [Compound 438]
11 | 0.1 to 0.25 (≈ 0.222 to 0.554 µM) | CCSc1ncccc1C(=O)N1CCN2C(=O)c3ccncc3C21c1ccc(Cl)cc1 (stereo not shown) [Compound 397]
12 | < 0.1 | CCOc1ccsc1C(=O)N1CCN2C(=O)c3ccncc3C21c1ccc(Cl)cc1 (stereo not shown) [Compound 449]
13 | 0.25 to 1 (≈ 0.507 to 2.03 µM) | CCCCCSc1ncccc1C(=O)N1CCN2C(=O)c3ccncc3C21c1ccc(Cl)cc1 (stereo not shown) [Compound 399]
14 | < 0.1 | O=C1c2ccncc2C2(c3ccc(Cl)cc3)N1CCN2C(=O)c1sccc1Br (stereo not shown) [Compound 445]
15 | < 0.1 | O=C(c1cccs1)N1CCN2C(=O)c3ccncc3C12c1ccc(Cl)cc1 (stereo not shown) [Compound 431]
16 | 0.25 to 1 (≈ 0.552 to 2.21 µM) | O=C(c1ccc(F)nc1)N1CCN2C(=O)c3cnccc3C12c1ccc(Br)cc1 (stereo not shown) [Compound 367]
17 | 0.1 to 0.25 (≈ 0.225 to 0.563 µM) | Cc1csc(C(=O)N2CCN3C(=O)c4ccncc4C32c2ccc(Cl)cc2)c1Cl (stereo not shown) [Compound 450]
18 | < 0.1 | O=C(c1csc(-c2cccs2)n1)N1CCN2C(=O)c3ccncc3C12c1ccc(Cl)cc1 (stereo not shown) [Compound 377]
19 | 0.1 to 0.25 (≈ 0.243 to 0.608 µM) | Cc1nc(C(=O)N2CCN3C(=O)c4ccncc4C23c2ccc(Cl)cc2)cs1 (stereo not shown) [Compound 444]

Row | EC50 [µg/mL] | SMILES
20 | < 0.1 | O=C1c2ccncc2C2(c3ccc(Cl)cc3)N1CCN2C(=O)c1nsc(Cl)c1Cl (stereo not shown) [Compound 461]
21 | 0.1 to 0.25 (≈ 0.215 to 0.538 µM) | CCCSc1ncccc1C(=O)N1CCN2C(=O)c3ccncc3C21c1ccc(Cl)cc1 (stereo not shown) [Compound 401]
22 | < 0.1 | O=C(c1ccoc1)N1CCN2C(=O)c3ccncc3C12c1ccc(Cl)cc1 (stereo not shown) [Compound 414]
23 | 0.25 to 1 (≈ 0.567 to 2.27 µM) | O=C(c1csc([N+](=O)[O-])c1)N1CCN2C(=O)c3ccncc3C12c1ccc(Cl)cc1 (stereo not shown) [Compound 434]
24 | < 0.1 | O=C(c1csc(-c2ccc[n+]([O-])c2)n1)N1CCN2C(=O)c3cc[n+]([O-])cc3C12c1ccc(Cl)cc1 (stereo not shown) [Compound 482]
25 | < 0.1 | O=C(c1csc(-c2cccnc2)n1)N1CCN2C(=O)c3ccncc3C12c1ccc(Cl)cc1 (stereo not shown) [Compound 381]
26 | < 0.1 | O=C(c1ccsc1)N1CCN2C(=O)c3ccncc3C12c1ccc(Cl)cc1 (stereo not shown) [Compound 430]
27 | < 0.1 | O=C(c1ccc(F)nc1)N1CCN2C(=O)c3cc[n+]([O-])cc3C12c1ccc(Cl)cc1 (stereo not shown) [Compound 480]
28 | 0.1 to 0.25 (≈ 0.224 to 0.561 µM) | O=C1c2ccncc2C2(c3ccc(Cl)cc3)N1CCN2C(=O)c1csc2ccccc12 (stereo not shown) [Compound 379]
29 | 0.1 to 0.25 (≈ 0.229 to 0.572 µM) | CSc1ncccc1C(=O)N1CCN2C(=O)c3ccncc3C21c1ccc(Cl)cc1 (stereo not shown) [Compound 398]
30 | 0.25 to 1 (≈ 0.613 to 2.45 µM) | O=C(c1ccc(F)cc1)N1CCN2C(=O)c3cccnc3C12c1ccc(Cl)cc1 (stereo not shown) [Compound 360]
31 | 0.25 to 1 (≈ 0.593 to 2.37 µM) | CCn1nc(C)cc1C(=O)N1CCN2C(=O)c3ccncc3C21c1ccc(Cl)cc1 (stereo not shown) [Compound 422]
32 | 0.25 to 1 (≈ 0.509 to 2.04 µM) | O=C(c1cncc(C#Cc2ccccc2)c1)N1CCN2C(=O)c3ccncc3C12c1ccc(Cl)cc1 (stereo not shown) [Compound 406]
33 | 0.25 to 1 (≈ 0.576 to 2.3 µM) | COc1ccc(CC(=O)N2CCN3C(=O)c4ccncc4C23c2ccc(Cl)cc2)cc1 (stereo not shown) [Compound 351]
34 | 0.1 to 0.25 (≈ 0.217 to 0.543 µM) | COc1c(C(=O)N2CCN3C(=O)c4ccncc4C32c2ccc(Cl)cc2)csc1Cl (stereo not shown) [Compound 436]
35 | < 0.1 | O=C(c1csc(-c2ccccc2)n1)N1CCN2C(=O)c3ccncc3C12c1ccc(Cl)cc1 (stereo not shown) [Compound 391]
36 | < 0.1 | Cc1cc(C(=O)N2CCN3C(=O)c4ccncc4C32c2ccc(Cl)cc2)c(C)o1 (stereo not shown) [Compound 412]
37 | < 0.1 | O=C(c1ccc(F)nc1)N1CCN2C(=O)c3ccncc3C12c1ccc(Cl)cc1 (stereo not shown) [Compound 368]

Source: patent US8598193B2, “Polycyclic agents for the treatment of respiratory syncytial virus infections” (Biota Scientific Management Pty Ltd., priority 2003, dated 2013)
